Earlier results as cited in patent US20220040100A1, “Stable Acyclovir Sodium Parenteral Formulation” (RK Pharma Solutions LLC, priority 2020, published 2022).
Structures can show the parent of a compound that is named as a salt.

Conditions: lyophilized powder reconstituted with Sterile Water for Injection, 50 mg/mL of acyclovir

pH of the reconstituted solution: approximately 11
SMILES: Nc1nc2c(ncn2COCCO)c(=O)[nH]1 [Acyclovir sodium, 2-amino-1,9-dihydro-9-[(2-hydroxyethoxy)methyl]-6H-purin-6-one monosodium salt]
